Experimental data reported in US7875287B2, “Tc-labeled arylpiperazine derivatives for imaging serotonin receptor” (Korea Atomic Energy Research Institute, priority 2005, dated 2011).

How the values were obtained:
[1] = Stability of 99mTc-complex by reversed phase HPLC; type: physicochemical; conditions: for approximately 4 hours; reaction mixture, RP-HPLC
Protocol: Radiochemical purity of ^99mTc-complex (25) was determined by HPLC using a C-18 reverse-phase column as a stationary phase and a water/ACN as a mobile phase, while maintaining a flow rate of 1 ml/min.
The complex is stable (>90%) for approximately 4 hours.

[2] = Paper electrophoresis in 0.1 M phosphate buffer (pH7.4); type: physicochemical; conditions: aqueous solution, 0.1 M phosphate buffer pH7.4, 45 min, 400 V (20 V/cm)
Protocol: Filtered preparation was applied on a paper eluted with 0.1 M phosphate buffer (pH7.4) for 45 min. at a 400 V (20 V/cm).

[3] = Static image scan of rabbits after intravenous injection; type: in vivo, male New Zealand white rabbits; conditions: rabbit, image 5 min after injection
Protocol: Static image of male New Zealand white rabbits scanned at 5 and 10 min.
At an image of 5 min. after the injection, high activity was found in the liver. A trace amount of ^99mTc-8-[3-({2-[4-(2-methoxy-phenyl)-piperazin-1-yl]-ethyl}-pyridin-2-yl-amino)-propyl]-[1,2,5,8]dithiadiazecan-6-one (25) seemed to be remained in the brain.

Substance: ^99mTc-8-[3-({2-[4-(2-methoxy-phenyl)-piperazin-1-yl]-ethyl}-pyridin-2-yl-amino)-propyl]-[1,2,5,8]dithiadiazecan-6-one [Compound 25]
- stability of the complex [1]: > 90%
- charge observed in paper electrophoresis [2]: neutral charge
- activity in the liver on image [3]: high activity
- amount remained in the brain on image [3]: trace amount
